Converted amounts (≈) assume the structure as drawn. The source made the active and inactive calls. The calls are words filed in the database; no cut-off is given here. Where a SMILES comes first, the peptide text is derived from it. Bridges are numbered along the chain shown (N, C = ends).
Tests used:
[1] = system: Klebsiella pneumoniae; experiment: Antibacterial activity against Klebsiella pneumoniae ATTC 13883 measured after overnight incubation by microtitre plate based spectrophotometric method; assay type: functional
[2] = system: Acinetobacter baumannii; experiment: Antibacterial activity against Acinetobacter baumannii 5015 measured after overnight incubation by microtitre plate based spectrophotometric method; assay type: functional
[3] = target: T1, Trypsin (Homo sapiens, UniProt P07477+P07478+P35030); experiment: Stability of the compound in pH 8.2 ammonium bicarbonate buffer assessed as trypsin (unknown origin)-mediated drug degradation at 20 ug/ml measured up to 120 mins by MALDI-TOF analysis; assay type: ADME, protein assay; conditions: pH 8.2, 2 h, at 20 µg/mL
[4] = system: PBMC; experiment: Immunomodulatory activity in human PBMC assessed as increase in MCP1 production at 25 ug/ml measured after overnight incubation by ELISA; assay type: functional, tissue-based; conditions: dose 25.0 µg/ml
[5] = Aggregation property of the compound in water at 1 mg/ml by turbidimetric method; assay type: physicochemical; conditions: buffer
[6] = system: PBMC; experiment: Immunomodulatory activity in human PBMC assessed as increase in IL-1RA production at 25 ug/ml measured after overnight incubation by ELISA; assay type: functional, tissue-based; conditions: dose 25.0 µg/ml
[7] = system: PBMC; experiment: Immunomodulatory activity in human PBMC assessed as increase in LPS-induced IL10 production at 25 ug/ml measured after overnight incubation by ELISA; assay type: functional; conditions: dose 25.0 µg/ml
[8] = system: Staphylococcus aureus; experiment: Antibacterial activity against methicillin-resistant Staphylococcus aureus SAP0017 measured after overnight incubation by microtitre plate based spectrophotometric method; assay type: functional
[9] = Aggregation property of the compound in 5% dextrose at 1 mg/ml by turbidimetric method; assay type: physicochemical
[10] = system: PBMC; experiment: Immunomodulatory activity in human PBMC assessed as increase in LPS-induced IL1RA production at 25 ug/ml measured after overnight incubation by ELISA; assay type: functional; conditions: dose 25.0 µg/ml
[11] = system: Staphylococcus aureus; experiment: Antibacterial activity against methicillin-resistant Staphylococcus aureus USA300 LAC measured after overnight incubation by microtitre plate based spectrophotometric method; assay type: functional
[12] = Aggregation property of the compound in saline at 1 mg/ml by turbidimetric method; assay type: physicochemical; conditions: buffer
[13] = system: Staphylococcus aureus; experiment: Antibiofilm activity against methicillin-resistant Staphylococcus aureus USA300 LAC incubated for 24 hrs under shaking condition by turbidometric method; assay type: functional
[14] = system: Staphylococcus aureus; experiment: Antibacterial activity against Staphylococcus aureus USA300 LAC infected in CD1 mouse assessed as reduction in bacterial load at 7.5 mg/kg, sc administered at infection site measured after 3 days by colony counting method relative to control; assay type: functional; conditions: time 3.0 day
[15] = system: Escherichia coli; experiment: Antibiofilm activity against Escherichia coli ATTC 489 incubated for 24 hrs under shaking condition by turbidometric method; assay type: functional
[16] = system: Pseudomonas aeruginosa; experiment: Antibiofilm activity against Pseudomonas aeruginosa PAO1 incubated for 24 hrs under shaking condition by turbidometric method; assay type: functional
[17] = system: Pseudomonas aeruginosa; experiment: Antibiofilm activity against Pseudomonas aeruginosa PA14 incubated for 24 hrs under shaking condition by turbidometric method; assay type: functional
[18] = system: Staphylococcus aureus; experiment: Antibacterial activity against Staphylococcus aureus USA300 LAC infected in CD1 mouse assessed as reduction in dermonecrosis at 7.5 mg/kg, sc administered at infection site measured after 3 days by caliper method relative to control; assay type: functional; conditions: time 3.0 day
[19] = Aggregation property of the compound in sodium nitrate solution at 10 mM by turbidimetric method; assay type: physicochemical; conditions: 10000 µM
[20] = target: T1, Trypsin; experiment: Stability of the compound in pH 8.2 ammonium bicarbonate buffer assessed as trypsin (unknown origin)-mediated drug degradation at 20 ug/ml measured up to 120 mins by RP-HPLC analysis; assay type: ADME, protein assay; conditions: pH 8.2, 2 h, at 20 µg/mL
[21] = system: Acinetobacter baumannii; experiment: Antibiofilm activity against Acinetobacter baumannii 17918 incubated for 24 hrs under shaking condition by turbidometric method; assay type: functional
[22] = system: Klebsiella pneumoniae; experiment: Antibiofilm activity against Klebsiella pneumoniae ATTC 13883 incubated for 24 hrs under shaking condition by turbidometric method; assay type: functional
[23] = system: Escherichia coli; experiment: Antibacterial activity against Escherichia coli ATTC 489 measured after overnight incubation by microtitre plate based spectrophotometric method; assay type: functional
[24] = Toxicity in CD1 mouse assessed as precipitation under the skin at 10 mg/kg, sc measured after 16 hrs; assay type: organism-based; conditions: in vivo
[25] = system: Pseudomonas aeruginosa; experiment: Antibacterial activity against Pseudomonas aeruginosa PAO1 measured after overnight incubation by microtitre plate based spectrophotometric method; assay type: functional
[26] = system: Pseudomonas aeruginosa; experiment: Antibacterial activity against Pseudomonas aeruginosa PA14 measured after overnight incubation by microtitre plate based spectrophotometric method; assay type: functional
[27] = Immunomodulatory activity in human PBMC assessed as increase in LPS-induced MCP1 production at 25 ug/ml measured after overnight incubation by ELISA; assay type: functional; conditions: dose 25 µg/ml
[28] = Aggregation property of the compound in RPMI medium with 1% FBS at 1 mg/ml by turbidimetric method; assay type: physicochemical
[29] = system: PBMC; experiment: Immunomodulatory activity in human PBMC assessed as reduction in LPS-induced TNFalpha production at 25 ug/ml measured after overnight incubation by ELISA; assay type: functional, tissue-based; conditions: dose 25.0 µg/ml
[30] = Aggregation property of the compound in sodium phosphate solution at 10 mM by turbidimetric method; assay type: physicochemical; conditions: 10000 µM
[31] = system: PBMC; experiment: Immunomodulatory activity in human PBMC assessed as reduction in LPS-induced IL1beta production at 25 ug/ml measured after overnight incubation by ELISA; assay type: functional, tissue-based; conditions: dose 25.0 µg/ml
[32] = system: Staphylococcus aureus; experiment: Antibiofilm activity against methicillin-resistant Staphylococcus aureus SAP0017 incubated for 24 hrs under shaking condition by turbidometric method; assay type: functional
[33] = system: PBMC; experiment: Immunomodulatory activity in human PBMC assessed as change in TNFalpha production at 25 ug/ml measured after overnight incubation by ELISA; assay type: functional, tissue-based; conditions: dose 25.0 µg/ml
[34] = Aggregation property of the compound in sodium citrate solution at 10 mM by turbidimetric method; assay type: physicochemical; conditions: 10000 µM
[35] = Cytotoxicity against human PBMC assessed as reduction in cell viability at 100 ug/ml measured after 24 hrs by LDH assay; assay type: tissue-based; conditions: dose 100 µg/ml
[36] = system: Acinetobacter baumannii; experiment: Antibacterial activity against Acinetobacter baumannii 17918 measured after overnight incubation by microtitre plate based spectrophotometric method; assay type: functional
[37] = Aggregation of the compound in human PBMC assessed as amorphous morphology at 50 ug/ml measured after 4 hrs by microscopic analysis; assay type: ADME, tissue-based; conditions: dose 50 µg/ml
[38] = system: Acinetobacter baumannii; experiment: Antibiofilm activity against Acinetobacter baumannii 5015 incubated for 24 hrs under shaking condition by turbidometric method; assay type: functional
[39] = system: Acinetobacter baumannii; experiment: Antibiofilm activity against 24 hrs preformed Acinetobacter baumannii 17918 biofilm assessed as reduction in biofilm viability at 100 ug/ml by TTC assay; assay type: functional, organism-based; conditions: dose 100.0 µg/ml
[40] = system: Klebsiella pneumoniae; experiment: Antibiofilm activity against 24 hrs preformed Klebsiella pneumoniae ATTC 13883 biofilm assessed as reduction in biofilm viability at 100 ug/ml by TTC assay; assay type: functional, organism-based; conditions: dose 100.0 µg/ml
[41] = system: Escherichia coli; experiment: Antibiofilm activity against 24 hrs preformed Escherichia coli ATTC 489 biofilm assessed as reduction in biofilm viability at 100 ug/ml by TTC assay; assay type: functional, organism-based; conditions: dose 100.0 µg/ml
[42] = system: Pseudomonas aeruginosa; experiment: Antibiofilm activity against 24 hrs preformed Pseudomonas aeruginosa PA14 biofilm assessed as reduction in biofilm viability at 100 ug/ml by TTC assay; assay type: functional, organism-based; conditions: dose 100.0 µg/ml
[43] = system: Acinetobacter baumannii; experiment: Antibiofilm activity against 24 hrs preformed Acinetobacter baumannii 5015 biofilm assessed as reduction in biofilm viability at 100 ug/ml by TTC assay; assay type: functional, organism-based; conditions: dose 100.0 µg/ml
[44] = system: Pseudomonas aeruginosa; experiment: Antibiofilm activity against 24 hrs preformed Pseudomonas aeruginosa PAO1 biofilm assessed as reduction in biofilm viability at 100 ug/ml by TTC assay; assay type: functional, organism-based; conditions: dose 100.0 µg/ml

Compound | MIC [1] | MIC [2] | Stabilty [3] | Activity [4] | Activity [5] | Activity [6] | MIC [8] | MIC [11] | MBEC [13] | MBEC [15] | MBEC [16] | MBEC [17] | MBEC [21] | MBEC [22] | MIC [23] | MIC [25] | MIC [26] | MBEC [32] | MIC [36] | MBEC [38] | further results
CC[C@H](C)[C@@H]1NC(=O)[C@H](CCCNC(=N)N)NC(=O)[C@H](C(C)C)NC(=O)[C@H](C)NC(=O)[C@H](C(C)C)NC(=O)[C@H]([C@@H](C)CC)NC(=O)[C@H](CC(C)C)NC(=O)[C@H](CCCNC(=N)N)NC(=O)[C@H](C(C)C)NC(=O)[C@@H](N)CSSC[C@@H](C(N)=O)NC(=O)[C@H](CCCNC(=N)N)NC(=O)[C@H](CCCNC(=N)N)NC(=O)[C@H](Cc2c[nH]c3ccccc23)NC1=O (H-CVRLIVAVRIWRRC-NH2; disulfide 1-14) | 28.7 µM (≈ 49.9 µg/mL) | 57.4 µM (≈ 99.9 µg/mL) | Stable | Active | Not Active | Active | 28.7 µM (≈ 49.9 µg/mL) | 28.7 µM (≈ 49.9 µg/mL) | 18.3 µM | 36.7 µM | 57.4 µM | 57.4 µM | 57.4 µM | 28.7 µM | 28.7 µM (≈ 49.9 µg/mL) | 57.4 µM (≈ 99.9 µg/mL) | 57.4 µM (≈ 99.9 µg/mL) | 18.3 µM | 57.4 µM (≈ 99.9 µg/mL) | 57.4 µM | Activity [7]: Active; Activity [9]: Not Active; Activity [10]: Active; Activity [12]: Not Active; Activity [14]: inactive; Activity [18]: inactive; Activity [19]: Active; Stabilty [20]: Stable; Activity [24]: Toxic; Activity [27]: 35%; Activity [28]: Active; Activity [29]: Active; Activity [30]: Active; Activity [31]: Active; Activity [33]: inactive; Activity [34]: Active; Activity [35]: Toxic; Activity [37]: Not Active
CC[C@H](C)[C@@H]1NC(=O)[C@H](CCCNC(=N)N)NC(=O)[C@H](C(C)C)NC(=O)[C@H](C)NC(=O)[C@H](C(C)C)NC(=O)[C@H]([C@@H](C)CC)NC(=O)[C@H](CC(C)C)NC(=O)[C@H](CCCNC(=N)N)NC(=O)[C@H](C(C)C)NC(=O)[C@H](CCCNC(=N)N)NC(=O)[C@H](CCCNC(=N)N)NC(=O)[C@H](Cc2c[nH]c3ccccc23)NC1=O (cyclo(AVRIWRRVRLIV)) | 65.8 µM (≈ 99.9 µg/mL) | 65.8 µM (≈ 99.9 µg/mL) | Stable | Active | Not Active | Active | 65.8 µM (≈ 99.9 µg/mL) | 65.8 µM (≈ 99.9 µg/mL) | 65.8 µM | >65.8 µM | >65.8 µM | >65.8 µM | >65.8 µM | >65.8 µM | 65.8 µM (≈ 99.9 µg/mL) | > 65.8 µM | > 65.8 µM | 65.8 µM | 65.8 µM (≈ 99.9 µg/mL) | >65.8 µM | Activity [9]: Not Active; Activity [12]: Not Active; Activity [19]: Not Active; Stabilty [20]: Stable; Activity [28]: Active; Activity [30]: Not Active; Activity [33]: Active; Activity [34]: Not Active; Activity [35]: Toxic; Activity [37]: Not Active
CCCCCCCCCCCCCCCC[N+](C)(C)Cc1ccccc1.[Cl-] [CETALKONIUM CHLORIDE] | 7.8 µM | 7.8 µM |  |  |  |  | 3.7 µM | 3.7 µM | 20.1 µM | 40.3 µM | >126 µM | >126 µM | 40.3 µM | 63.1 µM | 7.8 µM | > 126 µM | > 126 µM | 15.1 µM | 7.8 µM | 40.3 µM | 
CN[C@H](CC(C)C)C(=O)N[C@H]1C(=O)N[C@@H](CC(N)=O)C(=O)N[C@H]2C(=O)N[C@H]3C(=O)N[C@H](C(=O)N[C@H](C(=O)O)c4cc(O)cc(O)c4-c4cc3ccc4O)[C@H](O)c3ccc(c(Cl)c3)Oc3cc2cc(c3O[C@@H]2O[C@H](CO)[C@@H](O)[C@H](O)[C@H]2O[C@H]2C[C@](C)(N)[C@H](O)[C@H](C)O2)Oc2ccc(cc2Cl)[C@H]1O [VANCOMYCIN] | > 68 µM | > 68 µM |  |  |  |  | 0.4 µM (≈ 0.58 µg/mL) | 0.4 µM (≈ 0.58 µg/mL) | >68 µM | >68 µM | >68 µM | >68 µM | >68 µM | >68 µM | > 68 µM | > 68 µM | > 68 µM | >68 µM | > 68 µM | >68 µM | 
COLISTIN | 1.2 µM | 1.2 µM |  |  |  |  | > 86 µM | > 86 µM | > 86 µM | > 86 µM | > 86 µM | > 86 µM | > 86 µM | > 86 µM | 1.2 µM | 2.5 µM | 2.5 µM | > 86 µM | 1.2 µM | > 86 µM | Activity [39]: inactive; Activity [40]: inactive; Activity [41]: inactive; Activity [42]: inactive; Activity [43]: inactive; Activity [44]: inactive

From ChEMBL document CHEMBL4725351, “Cyclic Derivative of Host-Defense Peptide IDR-1018 Improves Proteolytic Stability, Suppresses Inflammation, and Enhances In Vivo Activity” (J Med Chem, 2020)
